Laboratory results as given in US11672802B2, “Induction of immune tolerance by using methotrexate” (Genzyme Corporation, priority 2011, dated 2023).

What was measured:
[1] = system: allogeneic heart transplant; assay: Murine allogeneic heart transplant model, graft survival; format: in vivo, mice (C57BL/6 donor, Balb/c recipient); conditions: mouse, in vivo
Experimental: Polyclonal antibody mATG was administered as an intraperitoneal injection of 5 mg/kg every four weeks or as two 20 mg/kg doses given four days apart when in the transplant setting with the first dose given on the day of transplant (day 0).
C57BL/6 and BALB/c mice were obtained from Charles River (Kingston, N.Y. or Raleigh, N.C.) and used in these experiments between 8 and 13 weeks of age. The donor allogenic C57BL/6 mice were first anesthetized with an intraperitoneal injection of Ketamine (Fort Dodge Animal Health/Pfizer, Fort Dodge, Iowa) and Xylazine (Lloyd, Shenandoah, Iowa) and a median sternotomy was performed. […] The ascending aorta and pulmonary artery were then transected, the graft removed from the donor and the heart was stored in ice-cold saline until engraftment. A recipient mouse (Balb/c) was similarly anesthetized and prepped as described above for donor mice, except that the abdominal cavity was opened. […] After hemostasis was confirmed, the abdominal muscle was closed with a running 5-O Vicryl suture (Ethicon, Johnson & Johnson, Somerville, N.J.), and the skin closed with running 5-0 Ethilon suture (Ethicon). Standard post-op pain assessment and management was performed. Grafts were assessed by palpation 5-7 times per week for the first 30 day, and then 3-4 times per week until the end of the study.

[2] = system: circulating and splenic T cells and B cells; assay: Flow cytometry of alemtuzumab-mediated lymphocyte depletion in blood and spleen; format: in vivo, huCD52 Tg mice
Experimental: For splenocyte and lymph node cell preparations single-cell suspensions were generated from harvested mouse spleens or inguinal and mesenteric lymph nodes by homogenization between frosted glass slides into PBS containing 2% FCS. For splenocyte preparations, red blood cells were lysed by 1-2 minute incubation with a red blood cell lysis solution (BD Biosciences, San Diego, Calif.). Blood was isolated by retro-orbital bleeding and cell preparations were performed by lysing red blood cells with red blood cell lysing solution (BD Biosciences) for 20-30 minutes. For all tissue preparations, live cells were enumerated using the ViCell automated counter (Beckman Coulter, Fullerton, Calif.). Following isolation, all cell preparations were washed with PBS/2% FCS prior to use in the assays described below.
For evaluation of cell populations within different tissues, single cell suspensions of the tissues were incubated with fluorochrome-conjugated antibodies that included anti-mouse CD4, CD8, CD25, CD44, CD62L (all antibodies from BD Biosciences or eBioscience, San Diego, Calif.). Intracellular Foxp3 expression analysis was performed according to the anti-Foxp3 manufacturer's protocol (eBiosciences, San Diego, Calif.). Following incubation with the antibodies, cells were washed and analyzed by flow cytometry (FACSCanto, BD Biosciences and FCS Express software, De Novo Software, Los Angeles, Calif.).

[3] = system: anti-alemtuzumab antibodies; conditions: rheumatoid arthritis patients, single dose escalation study; cited from earlier work
anti-alemtuzumab IgG = assay: Anti-alemtuzumab IgG ELISA titers in huCD52 Tg mice
Excerpt: Alemtuzumab-related studies employed human CD52 (huCD52) transgenic (Tg) mice between 6-12 weeks of age that were obtained from Charles River Laboratories/Genzyme Corp. Mice were housed and maintained in accordance with the Guide for Care and Use of Laboratory Animals and under American Association for Accreditation of Laboratory Animals Care I accreditation and all animal protocols used in these studies were approved by the Institutional Animals Care and Use Committee.
Monoclonal antibody alemtuzumab was administered intravenously as either a single injection of 0.5 mg/kg or in either a three or five day cycle of 0.5 mg/kg/day.
Methotrexate (Calbiochem catalog #454125) was administered at 0.5, 1.0, 2.0 or 5 mg/kg by intraperitoneal injection for 1-3 cycles, where each cycle equals either three, six or seven consecutive days of injection depending upon the experiment.
Mice were bled 4-6 days following alemtuzumab treatment and specific anti-alemtuzumab IgG was measured by ELISA. Briefly, 96-well plates (Corning Inc., Corning, N.Y., USA) were coated overnight with 3 μg/ml of alemtuzumab in PBS (pH 7.2). Following blocking with 0.1% BSA in PBS, serial dilutions of serum were added in duplicate to alemtuzumab-coated plates and incubated at 37° C. for 1 h. The plates were washed, and horseradish peroxidase-conjugated goat anti-mouse IgG secondary antibody (Southern Biotechnology Associates, Birmingham, Ala., USA) was added and allowed to incubate for 1 h at 37° C. Following a final wash, TMB substrate (BioFx, Owings Mills, Md., USA) was added and allowed to develop for 15 min at room temperature. The reaction was stopped by the addition of 1 N HCl and absorbance values were read at 450/650 nm on an ELISA plate reader (Molecular Devices, Sunnyvale, Calif., USA). End-point titers were defined as the antilog of the logarithmically transformed sample dilution interpolated at an absorbance value of 0.2 using Excel software (Microsoft, Redmond, Wash., USA).

anti-rhGAA IgG = assay: Anti-rhGAA IgG ELISA titers in mice treated with rhGAA; format: in vivo
Experimental: Recombinant human alglucosidase alfa (rhGAA, marketed by Genzyme Corp. as Myozyme®) was used as a formulated drug product. Mice were treated weekly with 20 mg/kg of rhGAA by bolus tail vein injection unless stated differently. All mice were treated prophylactically with 5 to 30 mg/kg diphenhydramine (Baxter Healthcare Corporation, Deerfield, Ill.) intraperitoneally prior to rhGAA administration. Control animals were treated intravenously with either sterile 0.9% saline or rhGAA-formulation buffer. Methotrexate treatment
Mice were bled 4-6 days following rhGAA treatment and specific IgG was measured by ELISA. […] Endpoint titers were defined as the reciprocal of the sample dilution resulting in an absorbance value of 0.2 using Softmax software (Molecular Devices, Sunnyvale, Calif.).
C57Bl/6 mice were treated with one 20 mg/kg intravenous dose of rhGAA (Genzyme Corporation), 3 consecutive intraperitoneal doses of 5 mg/kg methotrexate (APP Pharmaceuticals, LLC), and either 1D11 or 13C4 at 5 mg/kg (Genzyme Corporation) for 3 doses every other day. Methotrexate, 1D11, and 13C4 treatment commenced with rhGAA injections. Spleens were collected 7 days after treatment initiation and were processed as described above for B cells, culture and flow analysis. Additionally, rhGAA titer data was obtained by treating animals as described above, with rhGAA dosed weekly over 12 weeks, methotrexate dosed for either 1 or 3 cycles, and 1D11 or 13C4 dosed 3 times a week every other day for 12 weeks. Serum samples were collected every 2 weeks for ELISA analysis.

[4] = alemtuzumab 0.5 mg/kg iv five consecutive days
[5] = peripheral blood, four weeks after five consecutive days of 0.5 mg/kg iv

O=P1(N(CCCl)CCCl)NCCCO1 (stereo not drawn) [cyclophosphamide]
graft survival when co-administered with mATG [1]: failed to significantly prolong graft survival

COc1c(C)c2c(c(O)c1C/C=C(\C)CCC(=O)OCCN1CCOCC1)C(=O)OC2 [mycophenolate mofetil]
graft survival when co-administered with mATG [1]: failed to significantly prolong graft survival

alemtuzumab: lymphocyte-depleting humanized anti-CD52 monoclonal antibody
percent depletion of circulating B cells ([2]; 24 hours after a single dose of alemtuzumab): 92% | splenic follicular, B1 and regulatory B cells [2, 4]: depleted at one and/or two weeks | splenic marginal zone, transitional 1 and transitional 2 B cells [2, 4]: not depleted at any of the time-points | splenic transitional 3 B cells [2, 4]: only depleted after one week of treatment | depletion of circulating T cells by fifth monthly dose of alemtuzumab ([2]; alemtuzumab alone, or with methotrexate 5 mg/kg daily for first three days): no longer deplete T cells | recovery of CD19+ B cell numbers [2, 5]: returned to control levels | recovery of total CD3+ T cells, CD4+ T helper cells and CD8+ T cytotoxic cells [2, 5]: did not recover to pre-treatment levels | earliest depletion observed in peripheral blood, post-dosing ([2]; single dose of alemtuzumab): three hours | percent depletion of circulating B cells ([2]; three days after a single dose of alemtuzumab): 36% | splenic cell subsets ([2]; three days after a single dose of alemtuzumab, no methotrexate): significantly depleted | patients in whom anti-alemtuzumab antibodies developed [3]: 63% | ADA responses elicited (anti-alemtuzumab IgG; alemtuzumab 0.5 mg/kg iv): significant ADA responses | ADA response following the fifth dose (anti-alemtuzumab IgG; alemtuzumab 0.5 mg/kg monthly): no longer generated anti-alemtuzumab antibodies | ADA titers against alemtuzumab (anti-alemtuzumab IgG; huCD52 Tg CD1 mice): > 100,000

rhGAA: recombinant human acid alpha-glucosidase, marketed by Genzyme as Myozyme
ADA to rhGAA (anti-rhGAA IgG; T cell deficient Nu/Nu mice): little to no ADA | animals exhibiting high anti-rhGAA titers (anti-rhGAA IgG; week 6, rhGAA alone, rhGAA + methotrexate, or with 5 mg/kg 1D11 or 13C4): two
